# Experimental data as given in US20150087673A1, “METHODS FOR USING AND BIOMARKERS FOR AMPK-ACTIVATING COMPOUNDS” (RIGEL PHARMACEUTICALS, INC., priority 2013, published 2015).
# Tested on: AMPK
# Experiment: AMPK activation assay (enzyme-linked immunosorbent assay)
# Format: cell-based
# Procedure, shortened: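 Kit-based immunoassay; compounds screened as activators; standard reagents and protocol.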
row,Compound,EC50 [nM]
1,"CC(=O)c1ccc(OC2CCN(C(=O)c3ccc(C(=O)Nc4ccc(Oc5ccc(F)cc5)nc4)cn3)CC2)cc1 [Compound 395, 6-(4-(4-acetylphenoxy)piperidine-1-carbonyl)-N-(6-(4-fluorophenoxy)pyridin-3-yl)nicotinamide]",< 500
2,"CS(=O)(=O)c1ccc(OC2CCN(C(=O)c3ccc(C(=O)NC4CCN(Cc5ccc(F)cc5)CC4)cn3)CC2)cc1 [Compound 396, N-(1-(4-fluorobenzyl)piperidin-4-yl)-6-(4-(4-(methylsulfonyl)phenoxy)piperidine-1-carbonyl)nicotinamide]",1000 to 5000
3,"CS(=O)(=O)c1ccc(OC2CCN(C(=O)c3ccc(C(=O)NC4CCN(Cc5ccc(C#N)cc5)CC4)cn3)CC2)cc1 [Compound 397, N-(1-(4-cyanobenzyl)piperidin-4-yl)-6-(4-(4-(methylsulfonyl)phenoxy)piperidine-1-carbonyl)nicotinamide]",< 500
4,"CS(=O)(=O)c1ccc(OC2CCN(C(=O)c3ccc(C(=O)NC4CCC(Oc5ccc(C#N)cc5)CC4)cn3)CC2)cc1 (centres unmarked) [Compound 398, N-(4-(4-cyanophenoxy)cyclohexyl)-6-(4-(4-(methylsulfonyl)phenoxy)piperidine-1-carbonyl)nicotinamide]",< 500
5,"CS(=O)(=O)c1ccc(OC2CCN(C(=O)c3ccc(C(=O)NC4CCN(Cc5ccc(C#N)cc5)CC4)nn3)CC2)cc1 [Compound 399, N-(1-(4-cyanobenzyl)piperidin-4-yl)-6-(4-(4-(methylsulfonyl)phenoxy)piperidine-1-carbonyl)pyridazine-3-carboxamide]",< 500
6,"COc1ccc(C(=O)C2CCN(C(=O)c3ccc(C(=O)NC4CCN(Cc5ccc(N)cc5)CC4)cn3)CC2)cc1 [Compound 400, N-(1-(4-aminobenzyl)piperidin-4-yl)-6-(4-(4-methoxybenzoyl)piperidine-1-carbonyl)nicotinamide]",1000 to 5000
7,"COc1ccc(C(=O)C2CCN(C(=O)c3ccc(C(=O)NC4CCN(Cc5ccc(NC(C)=O)cc5)CC4)cn3)CC2)cc1 [Compound 401, N-(1-(4-acetamidobenzyl)piperidin-4-yl)-6-(4-(4-methoxybenzoyl)piperidine-1-carbonyl)nicotinamide]",1000 to 5000
8,"CC(=O)c1ccc(OC2CCN(C(=O)c3ccc(C(=O)NC4CCC(Oc5ccc(C#N)cc5)CC4)cn3)CC2)cc1 (centres unmarked) [Compound 402, 6-(4-(4-acetylphenoxy)piperidine-1-carbonyl)-N-(4-(4-cyanophenoxy)cyclohexyl)nicotinamide]",< 500
9,"COc1ccc(C(=O)C2CCN(C(=O)c3ccc(C(=O)NC4CCN(Cc5ccc(NC(=O)CCOCCOCCOCCNC(=O)CCCC[C@@H]6SC[C@@H]7NC(=O)N[C@@H]76)cc5)CC4)nc3)CC2)cc1 [Compound 403, 5-(4-(4-methoxybenzoyl)piperidine-1-carbonyl)-N-(1-(4-(14-oxo-18-((3aS,4S,6aR)-2-oxohexahydro-1H-thieno[3,4-d]imidazol-4-yl)-4,7,10-trioxa-13-azaoctadecanamido)benzyl)piperidin-4-yl)picolinamide]",> 10000
10,"O=C(NC1CCN(c2ccc(F)cc2)CC1)c1ccc(C(=O)N2CCN(Cc3ccc(F)cc3)CC2)nc1 [Compound 404, 6-(4-(4-fluorobenzyl)piperazine-1-carbonyl)-N-(1-(4-fluorophenyl)piperidin-4-yl)nicotinamide]",1000 to 5000
11,"COc1ccc(N2CCC(NC(=O)c3ccc(C(=O)N4CCN(Cc5ccc(F)cc5)CC4)nc3)CC2)cc1 [Compound 405, 6-(4-(4-fluorobenzyl)piperazine-1-carbonyl)-N-(1-(4-methoxyphenyl)piperidin-4-yl) nicotinamide]",< 500
12,"CC(=O)Nc1ccc(OC2CCN(C(=O)c3ccc(C(=O)NC4CCN(Cc5ccc(F)cc5)CC4)cn3)CC2)cc1 [Compound 406, 6-(4-(4-acetamidophenoxy)piperidine-1-carbonyl)-N-(1-(4-fluorobenzyl)piperidin-4-yl)nicotinamide]",500 to 1000
13,"COc1ccc(CN2CCC(NC(=O)c3ccc(C(=O)N4CCC(Oc5ccc(NC(C)=O)cc5)CC4)nc3)CC2)cc1 [Compound 407, 6-(4-(4-acetamidophenoxy)piperidine-1-carbonyl)-N-(1-(4-methoxybenzyl)piperidin-4-yl) nicotinamide]",< 500
14,"CC(=O)Nc1ccc(OC2CCN(C(=O)c3ccc(C(=O)Nc4ccc(Oc5ccc(F)cc5)nc4)nc3)CC2)cc1 [Compound 408, 5-(4-(4-acetamidophenoxy)piperidine-1-carbonyl)-N-(6-(4-fluorophenoxy)pyridin-3-yl)picolinamide]",< 500
15,"N#Cc1ccc(CN2CCC(NC(=O)c3ccc(C(=O)N4CCC(Oc5ccc(NC(=O)C6CC6)cc5)CC4)nc3)CC2)cc1 [Compound 409, N-(1-(4-cyanobenzyl)piperidin-4-yl)-6-(4-(4-(cyclopropanecarboxamido)phenoxy)piperidine-1-carbonyl)nicotinamide]",< 500
16,"N#Cc1ccc(CN2CCC(NC(=O)c3ccc(C(=O)N4CCC(Oc5ccc(SC(F)(F)F)cc5)CC4)cn3)CC2)cc1 [Compound 410, N-(1-(4-cyanobenzyl)piperidin-4-yl)-5-(4-(4-(trifluoromethylthio)phenoxy)piperidine-1-carbonyl)picolinamide]",< 500
17,"CC(=O)Nc1cccc(OC2CCN(C(=O)c3ccc(C(=O)NC4CCN(Cc5ccc(C#N)cc5)CC4)cn3)CC2)c1 [Compound 411, 6-(4-(3-acetamidophenoxy)piperidine-1-carbonyl)-N-(1-(4-cyanobenzyl)piperidin-4-yl)nicotinamide]",1000 to 5000
18,"COc1ccc(CN2CCC(NC(=O)c3ccc(C(=O)N4CCC(Oc5cccc(NC(C)=O)c5)CC4)nc3)CC2)cc1 [Compound 412, 6-(4-(3-acetamidophenoxy)piperidine-1-carbonyl)-N-(1-(4-methoxybenzyl)piperidin-4-yl)nicotinamide]",1000 to 5000
19,"CC(=O)Nc1cccc(OC2CCN(C(=O)c3ccc(C(=O)NC4CCN(Cc5ccc(F)cc5)CC4)cn3)CC2)c1 [Compound 413, 6-(4-(3-acetamidophenoxy)piperidine-1-carbonyl)-N-(1-(4-fluorobenzyl)piperidin-4-yl)nicotinamide]",1000 to 5000
20,"CC(=O)Nc1cccc(OC2CCN(C(=O)c3ccc(C(=O)Nc4ccc(Oc5ccc(F)cc5)nc4)cn3)CC2)c1 [Compound 414, 6-(4-(3-acetamidophenoxy)piperidine-1-carbonyl)-N-(6-(4-fluorophenoxy)pyridin-3-yl)nicotinamide]",1000 to 5000
21,"N#Cc1ccc(CN2CCC(NC(=O)c3ccc(C(=O)N4CCC(Oc5ccc(S(=O)(=O)C(F)(F)F)cc5)CC4)cn3)CC2)cc1 [Compound 415, N-(1-(4-cyanobenzyl)piperidin-4-yl)-5-(4-(4-(trifluoromethylsulfonyl)phenoxy)piperidine-1-carbonyl)picolinamide]",< 500
22,"COc1ccc(C(=O)C2CCN(C(=O)c3ncc(C(=O)NC4CCN(Cc5ccc(C#N)cc5)CC4)cc3CCCNC(=O)OC(C)(C)C)CC2)cc1 [Compound 416, tert-butyl 3-(5-(1-(4-cyanobenzyl)piperidin-4-ylcarbamoyl)-2-(4-(4-methoxybenzoyl)piperidine-1-carbonyl)pyridin-3-yl)propylcarbamate]",1000 to 5000
23,"N#Cc1ccc(N2CCC(NC(=O)c3ccc(C(=O)N4CCN(Cc5ccc(F)cc5)CC4)nc3)CC2)cc1 [Compound 417, N-(1-(4-cyanophenyl)piperidin-4-yl)-6-(4-(4-fluorobenzyl)piperazine-1-carbonyl)nicotinamide]",< 500
